# In patent US8569302B2, “Inhibitors of flaviviridae viruses” (Gilead Sciences, Inc., priority 2009, dated 2013):
# System: human hepatoma Huh-7 cell line harboring a HCV replicon
# Experiment: HCV replicon assay (inhibition of viral replication, luciferase readout)
# Format: cell-based
# Details: Hepatitis C virus, 72 h, Huh-7 HCV replicon cells, 3 days incubation
# Protocol: The anti-HCV activity of the compounds of this invention was tested in a human hepatoma Huh-7 cell line harboring a HCV replicon. The assay comprised the following steps:
# Step 1: Compound Preparation and Serial Dilution.
# Serial dilution was performed in 100% DMSO in a 384-well plate. A solution containing a compound at 225-fold concentration of the starting final serial dilution concentration was prepared in 100% DMSO and 15 μL added to the pre-specified wells in column 3 or 13 of a polypropylene 384-well plate. The rest of the 384-well plate was filled with 10 μL 100% DMSO except for columns 23 and 24, where 10 μL of 500 μM a HCV protease inhibitor (ITMN-191) in 100% DMSO was added. The HCV protease inhibitor was used a control of 100% inhibition of HCV replication. The plate was then placed on a Biomek FX Workstation to start the serial dilution. The serial dilution was performed for ten cycles of 3-fold dilution from column 3 to 12 or from column 13 to 22.
# Step 2: Cell Culture Plate Preparation and Compound Addition
# To each well of a black polypropylene 384-well plate, 90 μL of cell media containing 1600 suspended Huh-7 HCV replicon cells was added with a Biotek uFlow Workstation. A volume of 0.4 μL of the compound solution was transferred from the serial dilution plate to the cell culture plate on a Biomek FX Workstation. The DMSO concentration in the final assay condition was 0.44%. The plates were incubated for 3 days at 37° C. with 5% CO2 and 85% humidity.
# Step 3: Detection of Cytotoxicity and Inhibition of Viral Replication
# a) Assessment of cytotoxicity: The media in the 384-well cell culture plate was aspirated with a Biotek EL405 plate-washer. A volume of 50 μL of a solution containing 400 nM Calcein AM in 100% PBS was added to each well of the plate with a Biotek uFlow Workstation. The plate was incubated for 30 minutes at room temperature before the fluorescence signal ([…]) was measured with a Perkin Elmer Envision Plate Reader.
# b) Assessment of inhibition of viral replication: The calcein-PBS solution in the 384-well cell culture plate was aspirated with a Biotek EL405 plate-washer. A volume of 20 μL of Dual-Glo luciferase buffer (Promega, Dual-Glo Luciferase Assay Reagent, cat. #E298B) was added to each well of the plate with a Biotek uFlow Workstation. The plate was incubated for 10 minutes at room temperature. A volume of 20 μL of a solution containing 1:100 mixture of Dual-Glo Stop & Glo substrate (Promega, Dual-Glo Luciferase Assay Reagent, cat. #E313B) and Dual-Glo Stop & Glo buffer (Promega, Dual-Glo Luciferase Assay Reagent, cat. #E314B) was then added to each well of the plate with a Biotek uFlow Workstation. The plate was incubated at room temperature for 10 minutes before the luminescence signal was measured with a Perkin Elmer Envision Plate Reader.
# The percent cytotoxicity was determined by calcein AM conversion to fluorescent product. The average fluorescent signal from the DMSO control wells was defined as 100% nontoxic. The individual fluorescent signal from testing compound treated well was divided by the average signal from DMSO control wells and then multiplied by 100% to get the percent viability. The percent anti-HCV replication activity was determined by the luminescence signal from the testing well compared to DMSO control wells. The background signal was determined by the average luminescence signal from the HCV protease inhibitor treated wells and was subtracted from the signal from the testing wells as well as the DMSO control wells. Following 3-fold serial dilutions, the EC50 and CC50 values were calculated by fitting % inhibition at each concentration to the following equation: % inhibition=100%/[EC50/[I])^b+1]
# Where b is Hill's coefficient. See, for reference, Hill, A. V., The Possible Effects of the Aggregation of the Molecules of Hæmoglobin on its Dissociation Curves, J. Physiol. 40: iv-vii. (1910). […]
row,Compound,inhibition at 2 µM
1,"Cc1ccc(O[C@H]2CC[C@H](N(c3cc(C#CC(C)(C)C)sc3C(=O)O)C(=O)[C@H]3CC[C@H](C)CC3)CC2)nc1 [Compound 11, 5-(3,3-Dimethyl-but-1-ynyl)-3-{(trans-4-methyl-cyclohexanecarbonyl)-[trans-4-(5-methyl-pyridin-2-yloxy)-cyclohexyl]-amino}-thiophene-2-carboxylic acid]",99.9%
2,"Cc1cccnc1O[C@H]1CC[C@H](N(c2cc(C#CC(C)(C)C)sc2C(=O)O)C(=O)[C@H]2CC[C@H](C)CC2)CC1 [Compound 12, 5-(3,3-Dimethyl-but-1-ynyl)-3-{(trans-4-methyl-cyclohexanecarbonyl)-[trans-4-(3-methyl-pyridin-2-yloxy)-cyclohexyl]-amino}-thiophene-2-carboxylic acid]",99.7%
3,"CC(C)(C)C#Cc1cc(N(C(=O)[C@H]2CC[C@H](C)CC2)[C@H]2CC[C@H](Oc3cccc(C#N)n3)CC2)c(C(=O)O)s1 [Compound 13, 3-[[trans-4-(6-Cyano-pyridin-2-yloxy)-cyclohexyl]-(trans-4-methyl-cyclohexanecarbonyl)-amino]-5-(3,3-dimethyl-but-1-ynyl)-thiophene-2-carboxylic acid]",99.3%
4,"CC(C)(C)C#Cc1cc(N(C(=O)[C@H]2CC[C@H](C)CC2)[C@H]2CC[C@H](Oc3ccc(=O)[nH]n3)CC2)c(C(=O)O)s1 [Compound 14, 5-(3,3-Dimethyl-but-1-ynyl)-3-{(trans-4-methyl-cyclohexanecarbonyl)-[trans-4-(6-oxo-1,6-dihydropyridazin-3-yloxy)-cyclohexyl]-amino}-thiophene-2-carboxylic acid]",100%
5,"CC(C)(C)C#Cc1cc(N(C(=O)[C@H]2CC[C@H](C)CC2)[C@H]2CC[C@H](Oc3nccs3)CC2)c(C(=O)O)s1 [Compound 15, 5-(3,3-Dimethyl-but-1-ynyl)-3-{(trans-4-methyl-cyclohexanecarbonyl)-[trans-4-(thiazol-2-yloxy)-cyclohexyl]-amino}-thiophene-2-carboxylic acid]",99.6%
6,"CC(C)(C)C#Cc1cc(N(C(=O)[C@H]2CC[C@H](C)CC2)[C@H]2CC[C@H](Oc3ncccc3C(F)(F)F)CC2)c(C(=O)O)s1 [Compound 16, 5-(3,3-Dimethyl-but-1-ynyl)-3-{(trans-4-methyl-cyclohexanecarbonyl)-[trans-4-(3-trifluoromethyl-pyridin-2-yloxy)-cyclohexyl]-amino}-thiophene-2-carboxylic acid]",75.1%
7,"CC(C)(C)C#Cc1cc(N(C(=O)[C@H]2CC[C@H](C)CC2)[C@H]2CC[C@H](Oc3cccc(C(F)(F)F)n3)CC2)c(C(=O)O)s1 [Compound 17, 5-(3,3-Dimethyl-but-1-ynyl)-3-{(trans-4-methyl-cyclohexanecarbonyl)-[trans-4-(6-trifluoromethyl-pyridin-2-yloxy)-cyclohexyl]-amino}-thiophene-2-carboxylic acid]",67.6%
8,"CC(C)(C)C#Cc1cc(N(C(=O)[C@H]2CC[C@H](C)CC2)[C@H]2C[C@@H](Oc3cccnc3)C2)c(C(=O)O)s1 [Compound 20, 5-(3,3-Dimethyl-but-1-ynyl)-3-{(trans-4-methyl-cyclohexanecarbonyl)-[cis-3-(pyridin-3-yloxy)-cyclobutyl]-amino}-thiophene-2-carboxylic acid]",99.8%
9,"CC(C)(C)C#Cc1cc(N(C(=O)[C@H]2CC[C@H](C)CC2)[C@H]2C[C@H](Oc3cccnc3)C2)c(C(=O)O)s1 [Compound 21, 5-(3,3-Dimethyl-but-1-ynyl)-3-[(trans-4-methyl-cyclohexanecarbonyl)-{trans-3-(pyridin-3-yloxy)-cyclobutyl]-amino}-thiophene-2-carboxylic acid]",98.8%
10,"CC(C)(C)C#Cc1cc(N(C(=O)[C@H]2CC[C@H](C)CC2)[C@H]2C[C@@H](Oc3ncccn3)C2)c(C(=O)O)s1 [Compound 22, 5-(3,3-Dimethyl-but-1-ynyl)-3-{(trans-4-methyl-cyclohexanecarbonyl)-[cis-3-(pyrimidin-2-yloxy)-cyclobutyl]-amino}-thiophene-2-carboxylic acid]",96.2%
11,"CC(C)(C)C#Cc1cc(N(C(=O)[C@H]2CC[C@H](C)CC2)[C@H]2C[C@H](Oc3ncccn3)C2)c(C(=O)O)s1 [Compound 23, 5-(3,3-Dimethyl-but-1-ynyl)-3-{(trans-4-methyl-cyclohexanecarbonyl)-[trans-3-(pyrimidin-2-yloxy)-cyclobutyl]-amino}-thiophene-2-carboxylic acid]",99.5%
12,"CC1CCC(C(=O)N(c2cc(C#CC(C)(C)C)sc2C(=O)O)[C@H]2CC[C@H](Oc3ccnc4ccccc34)CC2)CC1 (some centres unmarked) [Compound 25, 5-(3,3-Dimethyl-but-1-ynyl)-3-{(4-methyl-cyclohexanecarbonyl)-[4-(quinolin-4-yloxy)-cyclohexyl]-amino}-thiophene-2-carboxylic acid]",99.3%
13,"CCc1cc(O[C@H]2CC[C@H](N(C(=O)C3CCC(C)CC3)c3cc(C#CC(C)(C)C)sc3C(=O)O)CC2)cc(CC)n1 (some centres unmarked) [Compound 26, 3-[[4-(2,6-diethyl-pyridin-4-yloxy)-cyclohexyl]-(4-methyl-cyclohexanecarbonyl)-amino]-5-(3,3-Dimethyl-but-1-ynyl)-thiophene-2-carboxylic acid]",99.8%
14,"CC(C)(C)C#Cc1cc(N(C(=O)[C@H]2CC[C@H](C)CC2)[C@H]2CC[C@H](Oc3cc(CN4CCCC4)ccn3)CC2)c(C(=O)O)s1 [Compound 27, 5-(3,3-Dimethyl-but-1-ynyl)-3-{(trans-4-methyl-cyclohexanecarbonyl)-[trans-4-(4-pyrrolidin-1-ylmethyl-pyridin-2-yloxy)-cyclohexyl]-amino}-thiophene-2-carboxylic acid]",100%
15,"CC1CCC(C(=O)N(c2cc(C#CC(C)(C)C)sc2C(=O)O)[C@H]2CC[C@H](Oc3cc(CN4CCOCC4)ccn3)CC2)CC1 (some centres unmarked) [Compound 28, 5-(3,3-Dimethyl-but-1-ynyl)-3-{(4-methyl-cyclohexanecarbonyl)-[4-(4-morpholin-4-ylmethyl-pyridin-2-yloxy)-cyclohexyl]-amino}-thiophene-2-carboxylic acid]",99.7%
16,"CC1CCC(C(=O)N(c2cc(C#CC(C)(C)C)sc2C(=O)O)[C@H]2CC[C@H](Oc3cc(CN(C)C)ccn3)CC2)CC1 (some centres unmarked) [Compound 29, 3-[[-4-(4-dimethylaminomethyl-pyridin-2-yloxy)-cyclohexyl]-(4-methyl-cyclohexanecarbonyl)-amino]-5-(3,3-Dimethyl-but-1-ynyl)-thiophene-2-carboxylic acid]",100%
17,"CC1CCC(C(=O)N(c2ccc(Oc3ccccn3)cc2)c2cc(C#CC(C)(C)C)sc2C(=O)O)CC1 (centres unmarked) [Compound 30, 5-(3,3-Dimethyl-but-1-ynyl)-3-{(4-methyl-cyclohexanecarbonyl)-[4-(pyridin-2-yloxy)-phenyl]-amino}-thiophene-2-carboxylic acid]",70.7%
18,C[C@@H](CCOc1cccnc1)N(c1cc(C#CC(C)(C)C)sc1C(=O)O)C(=O)[C@H]1CC[C@H](C)CC1 [Compound 58],99.9%
19,C[C@@H](CCOc1ncccn1)N(c1cc(C#CC(C)(C)C)sc1C(=O)O)C(=O)[C@H]1CC[C@H](C)CC1 [Compound 59],99.9%
20,C[C@@H](CCOc1ccccn1)N(c1cc(C#CC(C)(C)C)sc1C(=O)O)C(=O)[C@H]1CC[C@H](C)CC1 [Compound 60],97.5%
